According to patent US12390472B2 (SUZHOU SINOVENT PHARMACEUTICALS CO., LTD., priority 2018, dated 2025):
Where two headings read alike, the source gives them in different places.

Legend:
EZH2 enzyme complex = EZH2 enzyme complex (Homo sapiens (Human), UniProt Q15910); test: Test on EZH2 inhibitory activity (TR-FRET); assay type: biochemical; conditions: EZH2 enzyme complex 25 ng/uL, histone H3 peptide 4 uM, SAM 2 uM, 300 min; read-out: IC50 of EZH2 inhibition
Method: • EZH2 enzyme complex: 25 ng/uL • Histone H3 peptide substrate: 4 uM • SAM: 2 uM • Reaction time: 300 min Procedures • 1. Each compound disclosed herein was diluted with 1×HMT buffer and transferred to a 384-well assay plate at 3 uL per well; • 2. The EZH2 enzyme solution was prepared with 1×HMT buffer and transferred to the 384-well assay plate at 2 uL per well; • 3. The above assay plate was incubated for 30 min; • 4. A mixture solution of SAM and histone H3 peptide substrate at 2-fold concentration was prepared with 4×HMT buffer; • 5. 5 uL of the mixture solution of SAM and substrate was added to each well of the assay plate to react at room temperature, and the assay plate was sealed with plastic; • 6. After incubation for 5 h, 10 uL of TR-FRET detection buffer containing Tb-labeled antibody and dye-labeled receptor was added to each well of the assay plate; • 7. After incubation for 1 h at room temperature, the assay plate was detected; • 8.

Pfeiffer = test: Methylated lysine of histone-H3 (H3K27Me3) detection by ELISA, Pfeiffer cells; assay type: cell-based, human; conditions: 7 days treatment, H3K27Me3 normalized to total histone-3, read-out: IC50 of cell methylation, Pfeiffer
Summary of the method: (§1)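 Cells were treated 7 days with compound (4-fold dilutions, 20 uM-0.009 nM), then lysed hypotonically with NaCl adjusted to ~100 mM. Lysate-coated plates were probed by ELISA for H3K27Me3 and total H3 (TMB, A450). Methylation signal was normalised to total H3 before curve fitting.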

WSU-DLCL2 = test: Methylated lysine of histone-H3 (H3K27Me3) detection by ELISA, WSU-DLCL2 cells; assay type: cell-based; conditions: WSU-DLCL2, 7 days treatment, H3K27Me3 normalized to total histone-3, read-out: IC50 of cell methylation, WSU-DLCL2
Summary of the method: as §1

[1] = In vivo pharmacokinetic properties in mice; parameters: species or system mouse; conditions: male ICR mice; for F: intragastric 250 mg/kg vs intravenous 5 mg/kg; for CL / AUC(0-inf) / Cmax / Tmax / half-life: single intravenous 5 mg/kg and intragastric 250 mg/kg study; for AUC(0-inf) / Cmax / Tmax / half-life: mouse, plasma; for AUC(0-inf) / Cmax / Tmax: oral; for Cmax: read-out: Cmax; for Tmax: read-out: Tmax
Method: Male ICR mice were divided into different groups with 3 mice in each group, and single intravenous injection and single intragastric administration were conducted respectively. The compounds were formulated with 10% DMSO/90% (20% Captisol) to reach an appropriate concentration and then administered intravenously at 5 mg/kg. The compounds were formulated with 0.5% CMC-Na/0.1% Tween 80 (pH=3-4) to reach an appropriate concentration and then administered intragastrically at 250 mg/kg. Blood was taken at 5 min, 15 min, 30 min, 1 h, 2 h, 4 h, 6 h, 8 h and 24 h after administration, and then subjected to EDTA-K2 anticoagulation. The concentration of the compound in the plasma was quantitatively detected by an LC-MS/MS method.

Chain of EZH2 enzyme complex (Q15910 whole entry): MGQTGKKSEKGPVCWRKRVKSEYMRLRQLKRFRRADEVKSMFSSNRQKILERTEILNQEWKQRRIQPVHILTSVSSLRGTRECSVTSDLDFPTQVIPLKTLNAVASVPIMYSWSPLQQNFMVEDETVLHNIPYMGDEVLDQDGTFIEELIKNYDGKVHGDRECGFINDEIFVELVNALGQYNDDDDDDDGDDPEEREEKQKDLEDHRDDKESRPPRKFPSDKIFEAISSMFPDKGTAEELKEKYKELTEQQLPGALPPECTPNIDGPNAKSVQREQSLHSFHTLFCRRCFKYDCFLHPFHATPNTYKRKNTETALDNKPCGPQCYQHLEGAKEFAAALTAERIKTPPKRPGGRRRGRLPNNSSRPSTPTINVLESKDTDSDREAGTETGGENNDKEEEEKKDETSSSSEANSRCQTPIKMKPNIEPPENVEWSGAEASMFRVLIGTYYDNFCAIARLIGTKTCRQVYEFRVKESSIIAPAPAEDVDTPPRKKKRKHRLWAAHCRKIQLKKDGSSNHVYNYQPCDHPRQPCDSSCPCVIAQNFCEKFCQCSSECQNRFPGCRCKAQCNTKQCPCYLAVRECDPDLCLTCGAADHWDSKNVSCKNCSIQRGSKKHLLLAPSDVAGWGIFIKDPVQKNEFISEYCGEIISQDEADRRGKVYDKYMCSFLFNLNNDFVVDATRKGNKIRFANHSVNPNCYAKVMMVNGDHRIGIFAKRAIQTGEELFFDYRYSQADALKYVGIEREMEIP
Chain of EZH2 enzyme complex (O75530 whole entry partner): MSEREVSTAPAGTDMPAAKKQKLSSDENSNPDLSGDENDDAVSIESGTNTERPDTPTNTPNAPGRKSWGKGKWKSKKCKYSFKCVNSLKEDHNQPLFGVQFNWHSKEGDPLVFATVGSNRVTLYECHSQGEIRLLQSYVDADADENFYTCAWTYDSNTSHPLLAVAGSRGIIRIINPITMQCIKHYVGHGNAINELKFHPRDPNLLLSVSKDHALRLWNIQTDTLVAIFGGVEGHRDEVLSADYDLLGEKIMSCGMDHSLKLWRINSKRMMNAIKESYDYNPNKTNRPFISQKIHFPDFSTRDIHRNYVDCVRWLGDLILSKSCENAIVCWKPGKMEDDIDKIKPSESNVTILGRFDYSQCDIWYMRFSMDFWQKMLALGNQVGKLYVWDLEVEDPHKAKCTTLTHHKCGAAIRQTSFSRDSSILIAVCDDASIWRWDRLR
Chain of EZH2 enzyme complex (Q15022 whole entry partner): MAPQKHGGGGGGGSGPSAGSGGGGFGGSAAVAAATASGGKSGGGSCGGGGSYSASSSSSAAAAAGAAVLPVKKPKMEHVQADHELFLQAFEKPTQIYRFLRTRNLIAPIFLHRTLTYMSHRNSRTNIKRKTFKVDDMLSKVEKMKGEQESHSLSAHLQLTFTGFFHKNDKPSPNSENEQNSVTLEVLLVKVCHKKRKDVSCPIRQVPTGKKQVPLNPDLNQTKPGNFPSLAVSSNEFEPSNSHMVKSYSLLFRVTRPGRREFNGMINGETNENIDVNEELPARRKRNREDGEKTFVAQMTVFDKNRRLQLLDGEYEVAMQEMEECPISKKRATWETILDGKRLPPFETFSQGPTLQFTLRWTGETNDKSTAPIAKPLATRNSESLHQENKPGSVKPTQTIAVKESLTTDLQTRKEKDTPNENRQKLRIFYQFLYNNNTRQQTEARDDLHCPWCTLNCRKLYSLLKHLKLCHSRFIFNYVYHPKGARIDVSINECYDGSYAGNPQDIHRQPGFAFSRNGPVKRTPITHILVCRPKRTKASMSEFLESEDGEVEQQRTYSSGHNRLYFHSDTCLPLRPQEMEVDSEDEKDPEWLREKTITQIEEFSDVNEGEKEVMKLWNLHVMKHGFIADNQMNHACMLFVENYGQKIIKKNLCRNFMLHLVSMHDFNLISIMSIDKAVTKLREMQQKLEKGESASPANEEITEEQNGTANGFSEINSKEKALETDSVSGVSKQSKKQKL

| SMILES | IC50 (EZH2 enzyme complex) [µM] | IC50 (Pfeiffer; Homo sapiens, 168 h) [µM] | IC50 (WSU-DLCL2; Homo sapiens, WSUDLCL2, 168 h) [µM] | F [1] [%] | CL [1] [mL/min/lg] | AUC(0-inf) [1] [ng·h/mL] | Cmax [1] [ng/mL] | Tmax [1] [h] | half-life [1] [h] | IC50 (Pfeiffer) [µM] | IC50 (WSU-DLCL2) [µM] |
| --- | --- | --- | --- | --- | --- | --- | --- | --- | --- | --- | --- |
| CCN(c1cc(O[C@H]2C[C@H](N3CCOCC3)C2)cc(C(=O)NCc2c(C)cc(C)[nH]c2=O)c1C)C1CCOCC1 [Example 4, N-((4,6-dimethyl-2-oxo-1,2-dihydropyridin-3-yl)methyl)-3-(ethyl(tetrahydro-2H-pyran-4-yl)amino)-2-methyl-5-(trans-3-morpholinylcyclobutoxy)benzamide] | 0.01 to 0.1 | < 0.05 | 0.05 to 0.5 | 25.1 | 60.6 ± 19.36 | 18800 ± 487 | 16500 ± 4630 | 0.33 ± 0.14 | 3.13 ± 3.1 | – | – |
| CCN(c1cc(O[C@H]2C[C@H](N3C[C@@H](C)O[C@@H](C)C3)C2)cc(C(=O)NCc2c(C)cc(C)[nH]c2=O)c1C)C1CC2CCC(C1)O2 (stereo partly drawn) [Example 47, 3-((8-oxabicyclo[3.2.1]octan-3-yl)(ethyl)amino)-N-((4,6-dimethyl-2-oxo-1,2-dihydropyridin-3-yl)methyl)-5-(trans-3-(cis-2,6-dimethylmorpholinyl)cyclobutoxy)-2-methylbenzamide] | 0.01 to 0.1 | 0.05 to 0.5 | 0.05 to 0.5 | 118.1 | 103 ± 11.9 | 48000 | 19600 ± 8050 | 0.67 ± 0.29 | 3.1 ± 1.04 | – | – |
| CCN(c1cc(O[C@H]2C[C@H](N3CCC(C)CC3)C2)cc(C(=O)NCc2c(C)cc(C)[nH]c2=O)c1Cl)C1CCOCC1 [Example 59, 2-chloro-N-((4,6-dimethyl-2-oxo-1,2-dihydropyridin-3-yl)methyl)-3-(ethyl(tetrahydro-2H-pyran-4-yl)amino)-5-(trans-3-(4-methylpiperidin-1-yl)cyclobutoxy)benzamide] | < 0.01 | 0.05 to 0.5 | < 0.05 | 60.5 | 59.1 ± 6.95 | 43000 | 16600 | 0.8 ± 0.27 | 6.2 ± 3.83 | – | – |
| CCN(c1cc(C2CC2CN2CCOCC2)cc(C(=O)NCc2c(C)cc(C)[nH]c2=O)c1C)C1CCOCC1 (stereo not drawn) [Example 72, N-((4,6-dimethyl-2-oxo-1,2-dihydropyridin-3-yl)methyl)-3-(ethyl(tetrahydro-2H-pyran-4-yl)amino)-2-methyl-5-(2-(morpholinylmethyl)cyclopropyl)benzamide] | 0.01 to 0.1 | – | – | – | – | – | – | – | – | < 0.05 | 0.05 to 0.5 |
| CCN(c1cc(C2CC2CN2CCNCC2)cc(C(=O)NCc2c(C)cc(C)[nH]c2=O)c1C)C1CCOCC1 (stereo not drawn) [Example 73, N-((4,6-dimethyl-2-oxo-1,2-dihydropyridin-3-yl)methyl)-3-(ethyl(tetrahydro-2H-pyran-4-yl)amino)-2-methyl-5-(2-(piperazin-1-ylmethyl)cyclopropyl)benzamide] | 0.01 to 0.1 | 0.05 to 0.5 | 0.05 to 0.5 | – | – | – | – | – | – | – | – |
| CCN(c1cc(C2CC2CN2CCN(C)CC2)cc(C(=O)NCc2c(C)cc(C)[nH]c2=O)c1C)C1CCOCC1 (stereo not drawn) [Example 74, N-((4,6-dimethyl-2-oxo-1,2-dihydropyridin-3-yl)methyl)-3-(ethyl(tetrahydro-2H-pyran-4-yl)amino)-2-methyl-5-(2-((4-methylpiperazin-1-yl)methyl)cyclopropyl)benzamide] | 0.01 to 0.1 | < 0.05 | 0.05 to 0.5 | – | – | – | – | – | – | – | – |
| CCN(c1cc(C2CC2CN2C[C@@H](C)O[C@@H](C)C2)cc(C(=O)NCc2c(C)cc(C)[nH]c2=O)c1C)C1CCOCC1 (stereo partly drawn) [Example 75, N-((4,6-dimethyl-2-oxo-1,2-dihydropyridin-3-yl)methyl)-5-(2-((cis-2,6-dimethylmorpholinyl)methyl)cyclopropyl)-3-(ethyl(tetrahydro-2H-pyran-4-yl)amino)-2-methylbenzamide] | 0.01 to 0.1 | < 0.05 | > 1 | – | – | – | – | – | – | – | – |
| CCN(c1cc(C2CC2CN2CCN(CC(C)(C)C)CC2)cc(C(=O)NCc2c(C)cc(C)[nH]c2=O)c1C)C1CCOCC1 (stereo not drawn) [Example 76, N-((4,6-dimethyl-2-oxo-1,2-dihydropyridin-3-yl)methyl)-3-(ethyl(tetrahydro-2H-pyran-4-yl)amino)-2-methyl-5-(2-((4-neopentylpiperazin-1-yl)methyl)cyclopropyl)benzamide] | 0.01 to 0.1 | < 0.05 | 0.05 to 0.5 | – | – | – | – | – | – | – | – |
| CCN(c1cc(C2CC2CN2CCCCC2)cc(C(=O)NCc2c(C)cc(C)[nH]c2=O)c1C)C1CCOCC1 (stereo not drawn) [Example 77, N-((4,6-dimethyl-2-oxo-1,2-dihydropyridin-3-yl)methyl)-3-(ethyl(tetrahydro-2H-pyran-4-yl)amino)-2-methyl-5-(2-(piperidin-1-ylmethyl)cyclopropyl)benzamide] | 0.01 to 0.1 | < 0.05 | 0.05 to 0.5 | – | – | – | – | – | – | – | – |
| CCN(c1cc(C2CC2CN2CCC(F)(F)CC2)cc(C(=O)NCc2c(C)cc(C)[nH]c2=O)c1C)C1CCOCC1 (stereo not drawn) [Example 78, 5-(2-((4,4-difluoropiperidin-1-yl)methyl)cyclopropyl)-N-((4,6-dimethyl-2-oxo-1,2-dihydropyridin-3-yl)methyl)-3-(ethyl(tetrahydro-2H-pyran-4-yl)amino)-2-methylbenzamide] | 0.01 to 0.1 | < 0.05 | 0.05 to 0.5 | – | – | – | – | – | – | – | – |
| CCN(c1cc(C2CC2CN2CCC(F)CC2)cc(C(=O)NCc2c(C)cc(C)[nH]c2=O)c1C)C1CCOCC1 (stereo not drawn) [Example 79, N-((4,6-dimethyl-2-oxo-1,2-dihydropyridin-3-yl)methyl)-3-(ethyl(tetrahydro-2H-pyran-4-yl)amino)-5-(2-((4-fluoropiperidin-1-yl)methyl)cyclopropyl)-2-methylbenzamide] | 0.01 to 0.1 | < 0.05 | 0.05 to 0.5 | – | – | – | – | – | – | – | – |
